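Cells were grown in 96-well plates and exposed to each compound for 48 hours at five concentrations; endpoints were interpolated linearly between bracketing concentrations, or set to the highest concentration if not reached. GI50: concentration for 50% inhibition of growth.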 Calls of active or inactive are those of the source. Rule as the data show it: active = GI50 up to about 1.1 µM and inactive = higher.
Tests used:
Test in all cases: DTP human tumour cell line panel, 48 h
[1] = system: UACC-62
[2] = system: SNB-19
[3] = system: OVCAR-8
[4] = system: KM12
[5] = system: ACHN
[6] = system: UO-31
[7] = system: NCI/ADR-RES
[8] = system: MDA-N
[9] = system: 786-0
[10] = system: PC-3
[11] = system: NCI-H23
[12] = system: NCI-H226
[13] = system: SF-268
[14] = system: IGROV-1
[15] = system: HOP-92
[16] = system: HCT-15
[17] = system: Hs-578T
[18] = system: MOLT-4
[19] = system: HL-60

SMILES	GI50 [1]	GI50 [2]	GI50 [3]	GI50 [4]	GI50 [5]	GI50 [6]	GI50 [7]	GI50 [8]	GI50 [9]	GI50 [10]	GI50 [11]	GI50 [12]	GI50 [13]	GI50 [14]	GI50 [15]	GI50 [16] [µM]	GI50 [17]	GI50 [18]	GI50 [19]
Oc1cc(-c2cccc(OC(F)(F)F)c2)nc2cc3c(cc12)OCO3	0.123 µM (active)	0.0938 µM (active)	0.155 µM (active)	0.0968 µM (active)	> 32.7 µM (inactive)	0.174 µM (active)	0.0334 µM (active)	0.0143 µM (active)	0.0902 µM (active)	0.0366 µM (active)	0.12 µM (active)	0.239 µM (active)	2.72 µM (inactive)	0.355 µM (active)	1.05 µM (active)	0.0475	0.1 µM (active)	0.0371 µM (active)	0.0131 µM (active)
CC1CCN(CC(=O)N2c3ccccc3Sc3cc4ccccc4cc32)CC1	> 100 µM (inactive)	> 100 µM (inactive)	> 100 µM (inactive)	51.9 µM (inactive)	> 100 µM (inactive)	> 100 µM (inactive)	> 100 µM (inactive)	> 100 µM (inactive)	> 100 µM (inactive)	> 100 µM (inactive)	> 100 µM (inactive)	> 100 µM (inactive)	> 100 µM (inactive)	> 100 µM (inactive)	> 100 µM (inactive)	> 100	> 100 µM (inactive)	36.4 µM (inactive)	24.7 µM (inactive)
O=C1c2ccccc2C(=O)c2c(NC(=O)C(Cl)CCl)cccc21 (stereo not given)	10.1 µM (inactive)	15.2 µM (inactive)	5.56 µM (inactive)	2.58 µM (inactive)	13.8 µM (inactive)	10.6 µM (inactive)	23.1 µM (inactive)	10.4 µM (inactive)	2.87 µM (inactive)	9.33 µM (inactive)	4.03 µM (inactive)	17.5 µM (inactive)	5.7 µM (inactive)	5.02 µM (inactive)	3.97 µM (inactive)	6.65	31.3 µM (inactive)	< 0.0353 µM (active)	0.361 µM (active)
Cn1c2ccccc2c(=NNc2ccc(S(N)(=O)=O)cc2)c2ccccc21	14.7 µM (inactive)	27.6 µM (inactive)	16.2 µM (inactive)	11.2 µM (inactive)	8.05 µM (inactive)	10.7 µM (inactive)	14.1 µM (inactive)	15.9 µM (inactive)	21 µM (inactive)	9.75 µM (inactive)	16 µM (inactive)	10.9 µM (inactive)	18.1 µM (inactive)	17.7 µM (inactive)	8.85 µM (inactive)	16.2	32.7 µM (inactive)	3.95 µM (inactive)	2.7 µM (inactive)
Cc1ccc(/C=C2\N=C(N3CCOCC3)NC2=O)cc1	> 100 µM (inactive)	> 100 µM (inactive)	> 100 µM (inactive)	> 100 µM (inactive)	> 100 µM (inactive)	> 100 µM (inactive)	> 100 µM (inactive)	> 100 µM (inactive)	> 100 µM (inactive)	> 100 µM (inactive)	> 100 µM (inactive)	> 100 µM (inactive)	> 100 µM (inactive)	> 100 µM (inactive)	> 100 µM (inactive)	> 100	> 100 µM (inactive)	> 100 µM (inactive)	> 100 µM (inactive)
COc1cc(NS(C)(=O)=O)ccc1NCc1c[nH]c2ccc3nc(C)ccc3c12	40.6 µM (inactive)	77.8 µM (inactive)	50.1 µM (inactive)	48.9 µM (inactive)	33.9 µM (inactive)	28.6 µM (inactive)	> 100 µM (inactive)	41.2 µM (inactive)	30.4 µM (inactive)	43.9 µM (inactive)	15.8 µM (inactive)	45.7 µM (inactive)	28.1 µM (inactive)	73.6 µM (inactive)	40.6 µM (inactive)	37.9	72.1 µM (inactive)	2.9 µM (inactive)	8.45 µM (inactive)
CC(C)(C)OC(=O)NCC(=O)NC1CC=CCC1NC(=O)CNC(=O)OC(C)(C)C (stereo not given)	> 100 µM (inactive)	> 100 µM (inactive)	> 100 µM (inactive)	> 100 µM (inactive)	> 100 µM (inactive)	> 100 µM (inactive)	> 100 µM (inactive)	> 100 µM (inactive)	> 100 µM (inactive)	> 100 µM (inactive)	> 100 µM (inactive)	> 100 µM (inactive)	> 100 µM (inactive)	> 100 µM (inactive)	> 100 µM (inactive)	> 100	> 100 µM (inactive)	> 100 µM (inactive)	> 100 µM (inactive)
Cn1c2c(c3ccccc31)CCN1C(=O)CN(C(=O)C3CCCCC3)CC21 (stereo not given)	> 100 µM (inactive)	> 100 µM (inactive)	> 100 µM (inactive)	> 100 µM (inactive)	> 100 µM (inactive)	> 100 µM (inactive)	> 100 µM (inactive)	> 100 µM (inactive)	> 100 µM (inactive)	> 100 µM (inactive)	> 100 µM (inactive)	> 100 µM (inactive)	> 100 µM (inactive)	> 100 µM (inactive)	> 100 µM (inactive)	> 100	> 100 µM (inactive)	> 100 µM (inactive)	> 100 µM (inactive)
CCN(C(=O)/C=C/c1ccco1)c1ccccc1	> 100 µM (inactive)	> 100 µM (inactive)	> 100 µM (inactive)	> 100 µM (inactive)	> 100 µM (inactive)	> 100 µM (inactive)	> 100 µM (inactive)	> 100 µM (inactive)	> 100 µM (inactive)	> 100 µM (inactive)	> 100 µM (inactive)	> 100 µM (inactive)	> 100 µM (inactive)	> 100 µM (inactive)	> 100 µM (inactive)	> 100	> 100 µM (inactive)	53.8 µM (inactive)	21.9 µM (inactive)
CC(=O)CSc1c(-c2ccccc2)c(=O)n(-c2ccccc2)c(=S)n1-c1ccccc1	> 100 µM (inactive)	> 100 µM (inactive)	> 100 µM (inactive)	> 100 µM (inactive)	> 100 µM (inactive)	> 100 µM (inactive)	> 100 µM (inactive)	> 100 µM (inactive)	> 100 µM (inactive)	> 100 µM (inactive)	> 100 µM (inactive)	> 100 µM (inactive)	> 100 µM (inactive)	> 100 µM (inactive)	> 100 µM (inactive)	> 100	82.2 µM (inactive)	47.4 µM (inactive)	> 100 µM (inactive)
COc1cc2oc3cc(=O)cc4oc(-c5ccccc5)cc(c2c2c1CCC(c1ccccc1)O2)c43 (stereo not given)	35.1 µM (inactive)	63 µM (inactive)	50 µM (inactive)	17 µM (inactive)	19.3 µM (inactive)	55.6 µM (inactive)	> 100 µM (inactive)	22 µM (inactive)	48.2 µM (inactive)	47.8 µM (inactive)	62.8 µM (inactive)	> 100 µM (inactive)	> 100 µM (inactive)	33.1 µM (inactive)	> 100 µM (inactive)	20.4	85.9 µM (inactive)	8.95 µM (inactive)	25 µM (inactive)
CC[C@]1(Cc2ccc(OC)c(OC)c2)C=[N+]([O-])O[C@H](OC2CCCC2(c2ccccc2)c2ccccc2)[C@@H]1OC(=O)c1ccccc1 (stereo not given in full)	8.67 µM (inactive)	> 29.2 µM (inactive)	3.71 µM (inactive)	3.9 µM (inactive)	7.83 µM (inactive)	6.7 µM (inactive)	4.73 µM (inactive)	8.17 µM (inactive)	6.75 µM (inactive)	5.47 µM (inactive)	6.37 µM (inactive)	18 µM (inactive)	28.7 µM (inactive)	3.67 µM (inactive)	3.02 µM (inactive)	11.7	> 100 µM (inactive)	2.63 µM (inactive)	3.21 µM (inactive)
C=C1C(=O)O[C@@H]2CC(CO)=C([C@@H](C)CCCO)[C@@H](OC(=O)/C(C)=C\C)[C@H]12	16 µM (inactive)	20.1 µM (inactive)	20.6 µM (inactive)	17.3 µM (inactive)	15.1 µM (inactive)	16.8 µM (inactive)	20.2 µM (inactive)	15.1 µM (inactive)	14.8 µM (inactive)	16 µM (inactive)	13.3 µM (inactive)	28.4 µM (inactive)	15.6 µM (inactive)	14.5 µM (inactive)	19.6 µM (inactive)	13.7	21.1 µM (inactive)	10.8 µM (inactive)	1.83 µM (inactive)
O=C1NC(N2CCCCC2)=N/C1=C\c1ccco1	> 100 µM (inactive)	> 100 µM (inactive)	> 100 µM (inactive)	> 100 µM (inactive)	> 100 µM (inactive)	> 100 µM (inactive)	> 100 µM (inactive)	> 100 µM (inactive)	> 100 µM (inactive)	> 100 µM (inactive)	> 100 µM (inactive)	67.9 µM (inactive)	> 100 µM (inactive)	54.7 µM (inactive)	> 100 µM (inactive)	> 100	> 100 µM (inactive)	> 100 µM (inactive)	> 100 µM (inactive)
CCC(C#N)NC(=O)NC(C#N)CC (stereo not given)	> 100 µM (inactive)	> 100 µM (inactive)	> 100 µM (inactive)	> 100 µM (inactive)	> 100 µM (inactive)	58.5 µM (inactive)	> 100 µM (inactive)	> 100 µM (inactive)	> 100 µM (inactive)	91.8 µM (inactive)	> 100 µM (inactive)	> 100 µM (inactive)	> 100 µM (inactive)	> 100 µM (inactive)	31.7 µM (inactive)	> 100	> 100 µM (inactive)	28.5 µM (inactive)	> 100 µM (inactive)
